# Source: patent US11339175B2, “Thiol-based fluorescent probe for reactive species” (The Board of Trustees of the University of Illinois, priority 2018, dated 2022)
# Legend:
# [1] = reported value; cited from earlier work
# [2] = Fluorescence turn-on response to HNO (Angeli's salt) in vitro
# Procedure: (§1) FIG. 2. a) Fluorescence spectra of NitroxylFluor (2 μM) upon addition of AS (100 μM). b) Fluorescence kinetic trace of NitroxylFluor upon addition of 1 mM Angeli's salt, arrow indicates time of addition. c) Response of NitroxylFluor to various reactive oxygen, sulfur, and nitrogen species at concentrations of 100 μM (GSH was tested at 1 mM). Measurements were taken 15 minutes into treatment. d) Competition assays against various thiols. Control indicates no addition of Angeli's salt. Statistics are compared to the control. *, p<0.05; ***, p<0.001; p<0.0001. (n=3).
# (§2) FIG. 4. The normalized fluorescence turn-on response of NitroxylBlue-1, -2, and -3 treated with a vehicle control and incubated in PBS at 37° C. are shown in black. The normalized fluorescence turn-on response of NitroxylBlue-1, -2, and -3 treated with 100 μM Angeli's salt are shown in green. All data was taken 10 minutes after treatment. Statistical significance measured with respect to the corresponding control. *, p<0.05; **, p<0.01. (n=3).
# Angeli's salt was stored at −20° C. Stocks of Angeli's salt were added as a 10 mM solution in 10 mM KOH (for stability). Hydrogen peroxide was added as a 10 mM stock solution prepared by diluting 30% hydrogen peroxide in deionized water. Superoxide was added as a 1 mM stock solution of potassium superoxide in DMSO (for stability). […]
# [3] = Competition assays against thiols for HNO; details: 10 μM probe, Angeli's salt 200 μM
# Procedure: FIG. 2. a) Fluorescence spectra of NitroxylFluor (2 μM) upon addition of AS (100 μM). b) Fluorescence kinetic trace of NitroxylFluor upon addition of 1 mM Angeli's salt, arrow indicates time of addition. c) Response of NitroxylFluor to various reactive oxygen, sulfur, and nitrogen species at concentrations of 100 μM (GSH was tested at 1 mM). Measurements were taken 15 minutes into treatment. d) Competition assays against various thiols. Control indicates no addition of Angeli's salt. […] (n=3).
# In these experiments, 10 μM solutions of NitroxylFluor and various thiols such as L-cysteine (100 μM), N-acetyl-L-cysteine (100 μM), and GSH (1 mM) was treated with Angeli's salt (200 μM) (FIG. 2d).
# [4] = system: MDA-MB-231 cells; assay: Confocal imaging of HNO in living cells; type: cell-based, human
# Procedure: FIG. 3. Confocal microscopy images acquired by irradiation of MDA-MB-231 cells treated with 0 μM (vehicle control), 250 μM, 500 μM, 1000 μM Angeli's salt for 15 mins at 25° C. with a 488 nm laser. Images taken through a 40× oil immersion objective. Scale bar represents 20 μm. b) Quantification of imaging data. *, p<0.05; ***, p<0.001; p<0.0001.
# FIG. 8. Representative time course imaging of MDA-MB-231 cells stained with 4 μM NitroxylFluor for 15 minutes followed by replacement with fresh PBS with no probe. Angeli's salt (200 μM) was added 5 minutes after PBS was replaced. Images were taken through a 40× oil immersion objective at 0, 10, and 20 mins after AS addition at 25° C. via irradiation with a 488 nm laser. Scale bar represents 20 μm.
# MDA-MB-231 adenocarcinoma cells were acquired from Prof. David J. Shapiro (Biochemistry, UIUC). Cells were cultured in phenol-red free Dulbecco's modified eagle medium (DMEM, Corning) supplemented with 10% fetal bovine serum (FBS, Sigma Aldrich), and 1% penicillin/streptomycin (Corning). Cells were incubated at 37° C. with 5% CO2. Experiments were performed in 8-well chambered cover glasses (Lab-Tek, Thermo Scientific).
# An 8-well chambered cover glass was seeded with 0.4 mL of the above-mentioned cells at a density of 200,000 cells/mL. Cells were imaged at roughly 80% confluency (24 hours after seeding). Media was removed from each well and cells were washed with 200 μL PBS. The PBS was removed from the wells and replaced with 198 μL. 2 μL of 200 μM NitroxylFluor in PBS was added and gently stirred before being allowed to incubate at 37° C. with 5% CO2 for 15 minutes. PBS was then removed from the wells and replaced with 195 μL, 190 μL, or 180 μL PBS. The remaining volume to 200 μL was filled with 10 mM Angeli's salt in 10 mM KOH (or 10 mM KOH in the vehicle control) to give final concentrations of 0.250 mM, 0.500 mM, or 1 mM Angeli's salt. […] 3-5 images of each well were taken and their mean fluorescence (as reported by ImageJ) was averaged to give an average value for each well. […]
# [5] = Selectivity against reactive oxygen, sulfur and nitrogen species
# Procedure: as §1
# Angeli's salt was stored at −20° C. Stocks of Angeli's salt were added as a 10 mM solution in 10 mM KOH (for stability). […]
# Hydroxyl radical was prepared by first preparing a 10 mM solution of Mohr's Salt (Fe(NH4)2(SO4)2.6H2O in 0.1 M HCl which was degassed by bubbling nitrogen gas for 20 minutes through the solution. A solution of the probe was made in buffer and degassed and the initial reading was taken. 10 μL of 10 mM Hydrogen Peroxide and Mohr's salt solution giving a final volume of 1 mL (100 μM hydroxyl radical) were added and allowed to incubate at 37° C. for the duration of the selectivity assay with a septum on the cuvette. Iron(II) was prepared via the same procedure as hydroxyl radical only hydrogen peroxide was not added. […]
# [6] = system: MDA-MB-231 cells; assay: MTT cytotoxicity assay; type: cell-based, human
# Procedure: FIG. 9. MTT assay to determine the cytotoxicity of NitroxylFluor at 4 μM over 3, 6, and 24 hours. Detailed protocol available on page 3 of this supporting information document.
# A 96-well plate was seeded with 20,000 cells per well (200 μL of 150,000 cells/mL) and incubated at 37° C. with 5% CO2 for 24 h (˜70% confluent). […] After 3, 6, and 24 h the media was removed and replaced with […] 20:1 mixture of FBS-free DMEM and (3-(4,5-dimethylthiazol-2-yl)-2,5-diphenyl-tetrazolium bromide (MTT, 5 mg/mL stock in PBS). The cells were incubated for 4 h under the same conditions and then the medium was removed and replaced with DMSO ([…]). The absorbance of each well was recorded at 555 nm on a microplate reader. Viability was calculated by the absorbance relative to the vehicle control. Results pictured in FIG. 7.
# [7] = Thiol pKa by UV/vis absorbance at 230 nm; type: physicochemical; details: Britton-Robinson Universal Buffer
# Excerpt: Assay was completed by measuring the absorbance at 230 nm as described by Tajc et al. (J Am Chem Soc 2004, 126, 10508). Each reading was taken in triplicate and averaged in the respective pH Britton-Robinson Universal Buffer.
# [8] = Stability in aqueous media: background fluorescence turn-on with vehicle control; type: physicochemical; details: PBS
# Procedure: as §2
# FIG. 5. The normalized fluorescence turn-on response of S-methyl NitroxylBlue treated with vehicle control (black) or Angeli's salt (100 μM) and incubated in PBS at 25° C. All data was taken 15 minutes after treatment.
compound,measurement,setting,value
"N[C@@H](CCC(=O)N[C@@H](CS)C(=O)NCC(=O)O)C(=O)O [GSH, glutathione]",reported pKa,[1],9.42
CC(C)(S)C(=O)Oc1c(Cl)cc2c(c1Cl)Oc1cc(O)ccc1C21OCc2ccccc21 (stereo not shown) [NitroxylFluor],fluorescent turn-on response on reaction with HNO,"[2]; NitroxylFluor 2 μM, Angeli's salt 100 μM, in a matter of seconds",16 fold
same,fluorescent turn-on response in presence of GSH,[3]; GSH 1 mM,3.9 fold
same,fluorescence increase in competition with L-cysteine,[3]; L-cysteine 100 μM,16.2 fold
same,fluorescence enhancement in competition with N-acetyl-L-cysteine,[3]; N-acetyl-L-cysteine 100 μM,9.8 fold
same,fluorescence enhancement at lowest Angeli's salt concentration,"[4]; 250 μM Angeli's salt, 15 mins",statistically significant enhancement
same,fluorescence during time-lapse imaging,"[4]; 500 μM Angeli's salt, images every 1 min for 20 mins",gradual increase in the fluorescence
same,fluorescence turn-on response in cells,"[4]; Angeli's salt 250 μM to 1000 μM, after 15 mins",dose-dependent fluorescence turn-on response
same,change in fluorescence with reactive sulfur and nitrogen species,"[5]; e.g. H2S, NO, 100 μM, 15-minute incubation at 37° C.",no change in fluorescence
same,cross-reactivity with oxidants,"[5]; oxidants incl. H2O2, 100 μM, 15 minutes",not observed
same,cytotoxicity (MTT) versus DMSO control,"[6]; 4 μM, 3, 6, and 24 hours, n=3",No time point has significant difference from the DMSO control
same,cytotoxicity (MTT),"[6]; 10 μM probe, 3, 6, and 24 h",Cytotoxicity at any time point was not observe
"COC(=O)C(C)(C)S [compound 16, Methyl 2-mercapto-2-methylpropanoate]",pKa,[7],8.01
"CSC(C)(C)C(=O)Oc1ccc2c(C)cc(=O)oc2c1 [S-Methyl NitroxylBlue-2, reference compound]",hydrolysis after incubation in aqueous media,"[8]; 25° C., 15 minutes",No hydrolysis was observed
Cc1cc(=O)oc2cc(OC(=O)C(C)(C)S)ccc12 [NB-2],fluorescence turn-on response with Angeli's salt,"[2]; 100 μM Angeli's salt, PBS, 37° C., 10 minutes after treatment",3.5 fold
same,background fluorescence turn-on (hydrolysis / alpha-thiolactonization),"[8]; vehicle control, 37° C., after 10 minutes",1.6 fold
